Measurements: patent US8445224B2, “Method for assaying FTO (2-oxoglutarate dependent oxygenase) activity” (Isis Innovation Limited, priority 2007, dated 2013)

Biological target: T1, FTO (Mus musculus, UniProt Q8BGW1)
T1 construct: His tag (pET-28a) with peptide linker (N); made in house; host or cells: E. coli BL21-Gold(DE3)
Test: 2-oxoglutarate decarboxylation (uncoupled 2-OG turnover) assay with purified FTO
Assay type: biochemical
Procedure: FTO was incubated with all necessary cofactors, in various buffers lacking a specific reagent (Fe^2+, ascorbate or DTT) and in the presence of N-oxalyl-glycine (NOG), a generic Fe^2+-2OG-dioxygenase inhibitor at a concentration of 0.5 mM. In addition to Fe^2+ (added in the form of (NH4)2Fe(II)(SO4)2) and 2OG, dithiothreitol (DTT) and sodium ascorbate were added to the reaction mixture: DTT is a reducing agent that helps to maintain Fe^2+.
These were diluted to a total volume of 100 μl with 50 mM TRIS, pH 7.5. All reagents were mixed and pipetted into a 5 ml plastic screw cap tube, the FTO was added to the tube as a separate drop. A 500 μl Eppendorf tube containing 200 μl Hyamine hydroxide (Fisher Scientific, CO2 trapping agent) was added to each tube and tubes were closed with a rubber septum. After incubation in an environmental shaker at 37° C. for half an hour, 200 μl methanol was added to the contents and the tubes were put on ice for 30 minutes to quench the reaction. The Eppendorf tubes containing the hyamine hydroxide were transferred to scintillation vials, mixed with 5 ml OptiPhase Liquid Scintillation Cocktail (Fisher Scientific) and total ^14C counts quantified using a Beckman L56500 Multi-Purpose Scintillation Counter.

T1 sequence (Q8BGW1 whole entry): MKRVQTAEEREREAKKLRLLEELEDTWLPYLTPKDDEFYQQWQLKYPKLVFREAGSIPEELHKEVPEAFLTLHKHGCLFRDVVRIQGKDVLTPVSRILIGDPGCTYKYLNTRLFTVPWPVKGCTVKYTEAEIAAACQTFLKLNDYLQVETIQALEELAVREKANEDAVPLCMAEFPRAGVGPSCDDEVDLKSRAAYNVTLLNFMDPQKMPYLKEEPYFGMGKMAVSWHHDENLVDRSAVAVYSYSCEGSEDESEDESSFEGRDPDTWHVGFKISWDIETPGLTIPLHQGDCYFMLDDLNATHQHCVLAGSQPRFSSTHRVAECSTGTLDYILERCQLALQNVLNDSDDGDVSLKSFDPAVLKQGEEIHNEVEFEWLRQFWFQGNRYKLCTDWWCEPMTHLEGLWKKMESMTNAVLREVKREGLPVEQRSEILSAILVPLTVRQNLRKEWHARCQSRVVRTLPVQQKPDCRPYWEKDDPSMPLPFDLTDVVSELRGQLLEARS

Row | Inhibition of FTO 2-OG turnover (uncoupled) (no methylated DNA substrate) | Stimulation of FTO 2-OG turnover activity (uncoupled turnover) | Structure (SMILES)
1 | did not inhibit |  | O=C(O)C(=O)N[C@H](Cc1ccccc1)C(=O)O [NOFD, N-oxalyl D-phenylalanine]
2 |  | stimulated | O=S(=O)([O-])[O-].[Fe+2] [FeSO4]
